Measured values taken from ChEMBL document CHEMBL2016443, “From ApoA1 upregulation to BET family bromodomain inhibition: discovery of I-BET151” (Bioorg Med Chem Lett, 2012).
Activity calls are given as the source filed them. The calls are words filed in the database; no cut-off is given here.

Experiments:
THP-1 = experiment: Antiinflammatory activity in human THP1 cells; format: functional, cell-based
PBMC [1] = experiment: Inhibition of LPS-stimulated TNFalpha production in human PBMC; format: functional, cell-based
HepG2 = experiment: Upregulation of ApoA1 expression in human HepG2 cells assessed as concentration required to increase 70% of luciferase activity after 18 hrs by luciferase reporter gene assay; format: functional
PBMC [2] = experiment: Inhibition of LPS-stimulated IL-6 production in human PBMC; format: functional, cell-based
Cytochrome P450 3A4 = Cytochrome P450 3A4 (Homo sapiens, UniProt P08684); experiment: Inhibition of CYP3A4; format: ADME
Sequence of Cytochrome P450 3A4 (P08684 whole entry): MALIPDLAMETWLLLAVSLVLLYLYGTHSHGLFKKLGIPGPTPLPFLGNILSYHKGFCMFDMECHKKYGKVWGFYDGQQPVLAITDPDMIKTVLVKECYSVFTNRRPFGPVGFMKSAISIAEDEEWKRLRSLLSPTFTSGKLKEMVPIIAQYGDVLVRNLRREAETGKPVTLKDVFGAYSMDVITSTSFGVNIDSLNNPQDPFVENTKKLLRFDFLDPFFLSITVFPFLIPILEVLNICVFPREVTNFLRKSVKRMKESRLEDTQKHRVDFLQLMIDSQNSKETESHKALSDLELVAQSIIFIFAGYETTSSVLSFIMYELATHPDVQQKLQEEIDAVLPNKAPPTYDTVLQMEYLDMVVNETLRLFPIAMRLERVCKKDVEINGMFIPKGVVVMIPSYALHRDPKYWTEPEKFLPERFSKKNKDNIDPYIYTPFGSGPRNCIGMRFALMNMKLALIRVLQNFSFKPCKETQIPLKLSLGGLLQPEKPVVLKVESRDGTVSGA

Cytochrome P450 2C9 = Cytochrome P450 2C9 (Homo sapiens, UniProt P11712); experiment: Inhibition of CYP2C9; format: ADME
Sequence of Cytochrome P450 2C9 (P11712 whole entry): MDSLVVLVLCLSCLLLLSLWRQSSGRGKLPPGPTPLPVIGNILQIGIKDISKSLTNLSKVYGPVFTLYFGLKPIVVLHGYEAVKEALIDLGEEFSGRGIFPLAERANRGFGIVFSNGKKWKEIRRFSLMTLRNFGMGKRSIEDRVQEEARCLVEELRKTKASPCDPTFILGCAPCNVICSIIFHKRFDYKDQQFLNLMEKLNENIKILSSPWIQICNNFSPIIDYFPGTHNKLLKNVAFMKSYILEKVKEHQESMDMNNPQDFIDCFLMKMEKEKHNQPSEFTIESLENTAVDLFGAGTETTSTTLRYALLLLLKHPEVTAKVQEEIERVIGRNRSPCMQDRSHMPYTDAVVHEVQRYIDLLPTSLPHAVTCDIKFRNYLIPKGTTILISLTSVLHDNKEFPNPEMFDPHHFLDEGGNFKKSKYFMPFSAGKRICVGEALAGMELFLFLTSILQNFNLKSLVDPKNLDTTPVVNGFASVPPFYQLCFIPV

[3] = Clearance in iv dosed CD rat blood after 1 hr; format: ADME, organism-based; conditions: whole blood
Rattus norvegicus = species: Rattus norvegicus; experiment: Dose normalized AUC (0 to infinity ) in CD rat; format: ADME, organism-based; conditions: in vivo
[4] = Half life in CD rat; format: ADME, organism-based; conditions: CD, in vivo
Hepatocyte [5] = experiment: Bioactivation in human hepatocytes assessed as glutathione trapping; format: cell-based
[6] = Volume of distribution at steady state in CD rat; format: ADME, organism-based; conditions: in vivo, read-out: Vdss
Hepatocyte [7] = experiment: Bioactivation in rat hepatocytes assessed as compound epoxidation; format: cell-based
Salmonella typhimurium = experiment: Mutagenic activity in Salmonella typhimurium by Ames assay; format: toxicity, organism-based; conditions: salmonella enterica subsp. enterica serovar typhimurium
Hepatocyte [8] = experiment: Bioactivation in human hepatocytes assessed as compound epoxidation; format: cell-based
Hepatocyte [9] = experiment: Bioactivation in rat hepatocytes assessed as glutathione trapping; format: cell-based
[10] = Oral bioavailability in CD rat; format: ADME, organism-based; conditions: in vivo
Mus musculus [11] = experiment: Antiinflammatory activity in LPS-stimulated acute inflammation BALB/c mouse model assessed as inhibition of plasma MCP-1 level at 10 mg/kg, po administered 2 hrs before LPS challenge; format: functional
Mus musculus [12] = experiment: Antiinflammatory activity in LPS-stimulated acute inflammation BALB/c mouse model assessed as inhibition of plasma IL-6 level at 10 mg/kg, po administered 2 hrs before LPS challenge; format: functional
Mus musculus [13] = experiment: Antiinflammatory activity in LPS-stimulated acute inflammation BALB/c mouse model assessed as inhibition of plasma TNF-alpha level at 10 mg/kg, po administered 2 hrs before LPS challenge; format: functional
Mus musculus [14] = experiment: Antiinflammatory activity in LPS-stimulated acute inflammation BALB/c mouse model assessed as inhibition of plasma PAI-1 level at 10 mg/kg, po administered 2 hrs before LPS challenge; format: functional

SMILES | Activity (THP-1) | Activity (PBMC [1]) | EC170 (HepG2) | Activity (PBMC [2]) | IC50 (Cytochrome P450 3A4) | IC50 (Cytochrome P450 2C9) | further results
Cc1noc(C)c1-c1ccc2c(Nc3ccccc3C(C)(C)C)c(C(=O)O)cnc2c1C | Active | Active | 1.05 µM | Active |  |  | 
Cc1noc(C)c1-c1ccc2c(Nc3ccccc3)ccnc2c1 | Active | Active | 4.27 µM | Active |  |  | 
Cc1noc(C)c1-c1ccc2c(Nc3ccccc3)c(C(=O)N(C)C)cnc2c1 | Active | Active | 7.08 µM | Active |  |  | 
COc1cc2c(Nc3ccccc3N3CCOCC3)c(C(N)=O)cnc2cc1-c1c(C)noc1C | Active | Active | 0.09 µM | Active | 1500 nM | 5100 nM | 
COc1cc2c(Nc3ccccc3C(C)(C)C)c(C(=O)O)cnc2cc1-c1c(C)noc1C | Active | Active | 0.28 µM | Active |  |  | 
Cc1cc2c(Nc3ccccc3C(C)(C)C)c(C(=O)O)cnc2cc1-c1c(C)noc1C | Active | Active | 1.99 µM | Active |  |  | 
COc1cc2c(Nc3cccc4cccnc34)c(C(N)=O)cnc2cc1-c1c(C)noc1C | Active | Active | 0.22 µM | Active | 3900 nM | 2800 nM | clearance [3]: 50 mL/min/kg; AUC/dose (Rattus norvegicus): 12 kg·min/L; half-life [4]: 1.1 h; Drug metabolism (Hepatocyte [5]): Active; Vd [6]: 4 L/kg; Drug metabolism (Hepatocyte [7]): Active; Activity (Salmonella typhimurium): Toxic; Drug metabolism (Hepatocyte [8]): Active; Drug metabolism (Hepatocyte [9]): Active; bioavailability [10]: 59%
Cc1noc(C)c1-c1ccc2c(Nc3ccccc3C(C)(C)C)c(C(N)=O)cnc2c1 | Active | Active | 0.63 µM | Active | 2000 nM | 700 nM | 
CC[C@H](c1ccccc1)n1c(=O)[nH]c2cnc3cc(-c4c(C)noc4C)c(OC)cc3c21 | Active | Active | 0.03 µM | Active | 2400 nM | 2400 nM | 
COc1cc2c(Nc3ccccc3F)c(C(N)=O)cnc2cc1-c1c(C)noc1C | Active | Active | 0.3 µM | Active | 4700 nM | 600 nM | 
COc1cc2c(Nc3ccccc3C(C)(C)C)c(C(N)=O)cnc2cc1-c1c(C)noc1C | Active | Active | 0.13 µM | Active | 1900 nM | 1200 nM | 
COc1cc2c(NCc3ccccc3)c(C(N)=O)cnc2cc1-c1c(C)noc1C | Active | Active | 1.07 µM | Active |  |  | 
COc1cc2c(cc1-c1c(C)noc1C)ncc1[nH]c(=O)n(C(C)c3ccccc3)c12 (racemic) | Active | Active | 0.03 µM | Active | 2000 nM | 1300 nM | 
Cc1noc(C)c1-c1ccc2c(Nc3ccccc3)c(C(=O)O)cnc2c1 | Active | Active | 1.74 µM | Active | > 33000 nM | > 33000 nM | 
Cc1noc(C)c1-c1ccc2c(Nc3ccccc3)c(C(N)=O)cnc2c1 | Active | Active | 0.5 µM | Active | 17000 nM | 2100 nM | 
COc1cc2c(NC3CCCCC3)c(C(N)=O)cnc2cc1-c1c(C)noc1C | Active | Active | 0.45 µM | Active |  |  | 
Cc1ccccc1Nc1c(C(N)=O)cnc2cc(-c3c(C)noc3C)ccc12 | Active | Active | 0.44 µM | Active |  |  | 
CCNC(=O)C[C@@H]1N=C(c2ccc(Cl)cc2)c2cc(OC)ccc2-n2c(C)nnc21 [MOLIBRESIB] |  |  | 0.2 µM |  |  |  | 
Cc1noc(C)c1-c1ccc2c(Nc3ccccc3C(C)(C)C)c(C(=O)O)cnc2c1 | Active | Active | 0.32 µM | Active | 13000 nM | 10000 nM | 

SMILES | Activity (THP-1) | Activity (PBMC [1]) | EC170 (HepG2) | Activity (PBMC [2]) | IC50 (Cytochrome P450 3A4) | IC50 (Cytochrome P450 2C9) | further results
Cc1cccc(Nc2c(C(N)=O)cnc3cc(-c4c(C)noc4C)ccc23)c1 | Active | Active | 0.6 µM | Active |  |  | 
COc1ccccc1Nc1c(C(N)=O)cnc2cc(-c3c(C)noc3C)ccc12 | Active | Active | 0.39 µM | Active |  |  | 
COc1cc2c(cc1-c1c(C)noc1C)ncc1[nH]c(=O)n([C@H](C)c3ccccc3)c12 | Active | Active | 0.01 µM | Active | 1500 nM | 1000 nM | 
COc1cc2c(Nc3ccccc3C(=O)c3ccccn3)c(C(N)=O)cnc2cc1-c1c(C)noc1C | Active | Active | 0.2 µM | Active | 3100 nM | 9900 nM | 
COc1cc2c(cc1-c1c(C)noc1C)ncc1[nH]c(=O)n(Cc3ccccn3)c12 | Active | Active |  | Active | 12900 nM |  | 
COc1cc2c(cc1-c1c(C)noc1C)ncc1[nH]c(=O)n(-c3ccccc3F)c12 | Active | Active | 0.76 µM | Active |  |  | 
COc1cc2c(cc1-c1c(C)noc1C)ncc1[nH]c(=O)n(-c3ccccc3OC(F)(F)F)c12 | Active | Active | 0.09 µM | Active |  | 2300 nM | 
COc1cc2c(Nc3ccccc3C(=O)N3CCCCC3)c(C(N)=O)cnc2cc1-c1c(C)noc1C | Active | Active | 0.13 µM | Active | 1800 nM | 8500 nM | 
COc1cc2c(NCc3ccccn3)c(C(N)=O)cnc2cc1-c1c(C)noc1C | Active | Active | 2.57 µM | Active |  |  | 
COc1cc2c(cc1-c1c(C)noc1C)ncc1[nH]c(=O)n(-c3ccccc3C(C)(C)C)c12 | Active | Active | 0.05 µM | Active | 1700 nM | 900 nM | 
COc1cc2c(cc1-c1c(C)noc1C)ncc1[nH]c(=O)n(Cc3ccccc3)c12 | Active | Active | 0.06 µM | Active |  | 1200 nM | 
COc1cc2c(cc1-c1c(C)noc1C)ncc1[nH]c(=O)n([C@@H](C)c3ccccc3)c12 | Active | Active | 0.47 µM | Active |  |  | 
Cc1noc(C)c1-c1ccc2c(Nc3ccccc3C#N)c(C(N)=O)cnc2c1 | Active | Active | 1.02 µM | Active |  |  | 
C[C@]12C=CC(=O)C=C1CC[C@@H]1[C@@H]2[C@@H](O)C[C@@]2(C)[C@H]1CC[C@]2(O)C(=O)CO [PREDNISOLONE] |  |  |  |  |  |  | inhibition in vivo at 10 mg/kg (Mus musculus [11]): 49%; inhibition in vivo at 10 mg/kg (Mus musculus [12]): 59%; inhibition in vivo at 10 mg/kg (Mus musculus [13]): 94%; inhibition in vivo at 10 mg/kg (Mus musculus [14]): 43%
Cc1noc(C)c1-c1ccc2c(Nc3ccccc3)c(C(=O)NCc3ccccc3)cnc2c1 | Active | Active | 1.44 µM | Active |  |  | 
COc1cc2c(Nc3ccccc3CCN3CCOCC3)c(C(N)=O)cnc2cc1-c1c(C)noc1C | Active | Active | 0.09 µM | Active | 1900 nM | 2200 nM | 
Cc1noc(C)c1-c1ccc2c(Nc3ccccc3F)c(C(N)=O)cnc2c1 | Active | Active | 0.5 µM | Active |  |  | 
Cc1noc(C)c1-c1ccc2c(Nc3ccccc3Cl)c(C(N)=O)cnc2c1 | Active | Active | 1 µM | Active |  |  | 
Cc1ccc(Nc2c(C(N)=O)cnc3cc(-c4c(C)noc4C)ccc23)cc1 | Active | Active | 1.05 µM | Active |  |  | 
